According to patent US11633392B2 (priority 2016, dated 2023):
Structures can show the parent of a compound that is named as a salt. Where two headings read alike, the source gives them in different places. Marks after values point to notes of the source that are not given here.

Key:
human opioid κ receptor = molecular target: T1, human opioid κ receptor (Homo sapiens, UniProt P41145); experiment: Opioid receptor function test (Lance Ultra cAMP Kit), κ receptor; type: cell-based; settings: for EC50: CHO cells expressing human κ receptor, cAMP, in the presence of forskolin; for κ receptor reaction rate at the maximum concentration (reference value, marked *): maximum reaction not reached, maximum concentration 10 μM, U-69593 = 100%
T1 construct: host or cells: CHO cells
Description: (§1) Opioid Receptor Function Test
(§2) The functional activities of the compounds provided by the present invention on the μ, δ, and κ opioid receptors were investigated.
(§3) The test was performed by using Lance Ultra cAMP Kit (PerkinElmer) according to a method predetermined for the kit. In the evaluation of the agonistic activity, CHO cells expressing each of the human opioid receptors (δ, μ, and κ, accession numbers and catalog numbers are mentioned below) and 10 μM of each test compound were reacted for 30 minutes in an assay buffer (1× HBSS, […], pH 7.4, […] (isobutylmethylxanthine), 7.5% BSA) in the presence of forskolin. Subsequently, the cAMP detection reagent included in the kit was added, and 1 hour afterward, time-resolved fluorescence measurement was performed by using the EnVision plate reader (PerkinElmer). The test compounds and the control drugs (δ: SNC80, μ: DAMGO, κ: U-69593) were evaluated in a concentration range of 10^−12 to 10^−5 M, a dose-response curve of each test compound was obtained from the fluorescence values at 665 nm, and EC50 value and the Emax value were calculated. The Emax value was calculated as a ratio of the maximum reaction of the test compound to the maximum reaction of each control drug, which is taken as 100%.
(§4) • δ: Catalog No. CT4607, Accession No. NM_000911.2 • μ: Catalog No. CT4605, Accession No. NM_000914 • κ: Catalog No. CT4606, Accession No. NM_000912 (ChanTest Corporation)

human opioid μ receptor = molecular target: T2, human opioid μ receptor (Homo sapiens, UniProt P35372); experiment: Opioid receptor function test (Lance Ultra cAMP Kit), μ receptor; type: cell-based; settings: for EC50: read-out: μ receptor EC50 value
T2 construct: host or cells: CHO cells
Description: as §1, §2, §3, §4

human opioid δ receptor = molecular target: T3, human opioid δ receptor (Homo sapiens, UniProt P41143); experiment: Opioid receptor function test (Lance Ultra cAMP Kit), δ receptor; type: cell-based; settings: for EC50: CHO cells expressing human δ receptor, cAMP, in the presence of forskolin; for Emax / δ receptor Emax: ratio to maximum reaction of control drug SNC80 taken as 100%
T3 construct: host or cells: CHO cells
Description: as §1, §2, §3, §4

[1] = test system: olfactory bulbectomized (OBX) rat; experiment: Hyperemotional reaction inhibition test using olfactory bulbectomized (OBX) rat; type: in vivo; settings: 10 mg/kg s.c. once a day, on the day 14 of the administration period
Text: Hyperemotional Reaction Inhibition Test Using Olfactory Bulbectomized (OBX) Rat
According to the method of Saitoh et al. (Saitoh A, Yamada M, Yamada M, Takahashi K, Yamaguchi K, Murasawa H, Nakatani A, Tatsumi Y, Hirose N, and Kamei J: Antidepressant-like effects of the delta-opioid receptor agonist SNC80 ((+)-4-[(alphaR)-alpha-[(2S,5R)-2,5-dimethyl-4-(2-propenyl)-1-piperazinyl]-(3-methoxyphenyl)methyl]-N,N-diethylbenzamide) in an olfactory bulbectomized rat model, Brain Res., 2008, 1208:160-169), OBX rats were prepared by extracting the rat olfactory bulbs, and then breeding the rats in an isolated circumstance. Hyperemotional reaction was evaluated on the day 14 after the surgical operation and before the division into groups, and 2 hours after the administration on the days 1, 4, 7, 10, and 14 of the administration period according to the hyperemotional reaction evaluation criteria prepared by Gomita et al. (Gomita et al., Behavioral pharmacological and electroencephalographical studies of 7-chloro-1-methyl-5-phenyl-1H-1,5-benzodiazepine-2,4-(3H,5H:)-dione (Clobazam), Folia Pharmacologica Japonica, 82, 267 (1983)). The drug was subcutaneously administered once a day continuously over 14 days. As a positive control drug, fluoxetine, which is a selective serotonin reuptake inhibitor (SSRI), was used. As the solvent, a 1% cyclodextrin (CD) was used.

[2] = ratio to maximum reaction of control drug U-69593 taken as 100%
[3] = CHO cells expressing human μ receptor, cAMP, in the presence of forskolin
[4] = ratio to maximum reaction of control drug DAMGO taken as 100%

T2 sequence (P35372 whole entry): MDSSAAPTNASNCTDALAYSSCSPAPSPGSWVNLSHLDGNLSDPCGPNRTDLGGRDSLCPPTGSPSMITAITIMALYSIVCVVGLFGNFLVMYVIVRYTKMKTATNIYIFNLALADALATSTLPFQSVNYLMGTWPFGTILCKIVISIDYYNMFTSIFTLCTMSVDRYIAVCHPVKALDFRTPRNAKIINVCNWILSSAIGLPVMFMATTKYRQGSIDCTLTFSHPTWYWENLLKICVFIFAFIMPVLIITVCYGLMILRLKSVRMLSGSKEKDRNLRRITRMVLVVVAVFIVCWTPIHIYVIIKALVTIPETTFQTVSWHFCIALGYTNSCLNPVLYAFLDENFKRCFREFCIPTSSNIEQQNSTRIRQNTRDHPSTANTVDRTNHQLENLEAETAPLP
T3 sequence (P41143 whole entry): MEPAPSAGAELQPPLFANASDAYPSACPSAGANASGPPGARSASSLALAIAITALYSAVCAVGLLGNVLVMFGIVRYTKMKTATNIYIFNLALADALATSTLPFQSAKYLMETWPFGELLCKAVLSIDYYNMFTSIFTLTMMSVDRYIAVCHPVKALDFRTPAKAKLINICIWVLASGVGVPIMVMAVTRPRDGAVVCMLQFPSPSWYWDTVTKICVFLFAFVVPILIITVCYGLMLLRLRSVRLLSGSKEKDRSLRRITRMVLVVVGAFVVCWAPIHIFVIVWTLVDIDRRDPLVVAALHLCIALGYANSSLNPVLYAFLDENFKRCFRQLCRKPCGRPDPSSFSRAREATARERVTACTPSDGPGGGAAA
T1 sequence (P41145 whole entry): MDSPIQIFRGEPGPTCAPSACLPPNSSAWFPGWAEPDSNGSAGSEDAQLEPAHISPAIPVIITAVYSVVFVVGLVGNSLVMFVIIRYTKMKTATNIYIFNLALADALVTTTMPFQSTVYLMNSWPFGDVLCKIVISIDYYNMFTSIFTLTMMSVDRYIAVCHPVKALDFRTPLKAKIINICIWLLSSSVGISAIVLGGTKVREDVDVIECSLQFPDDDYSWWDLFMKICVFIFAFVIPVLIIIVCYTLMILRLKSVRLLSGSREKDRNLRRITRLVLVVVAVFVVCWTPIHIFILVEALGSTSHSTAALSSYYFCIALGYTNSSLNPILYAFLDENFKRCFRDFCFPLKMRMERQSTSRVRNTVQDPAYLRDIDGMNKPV

| Compound | EC50 (human opioid κ receptor) [nM] | Emax (human opioid κ receptor; [2]) [%] | EC50 (human opioid μ receptor; [3]) [nM] | Emax (human opioid μ receptor; [4]) [%] | EC50 (human opioid δ receptor) [nM] | Emax (human opioid δ receptor) [%] | κ receptor reaction rate at the maximum concentration (reference value, marked *) (human opioid κ receptor) | also measured |
| --- | --- | --- | --- | --- | --- | --- | --- | --- |
| O=C(c1ccc(=O)[nH]c1)N1C[C@H]2C[C@@]34CC[C@@H]1[C@@H]2[C@@]31CCN(CC2CC2)[C@@H]4Cc2ccc(O)cc21 [Example 5, 5-((1S,3aR,5aS,6R,11bR,11cS)-14-(cyclopropylmethyl)-10-hydroxy-2,3,3a,4,5,6,7,11c-octahydro-1H-6,11b-(epiminoethano)-1,5a-methanonaphtho[1,2-e]indole-3-carbonyl)pyridin-2(1H)-one] | < 1 | 20 | > 1 | 9.7 | < 3 | 81 |  |  |
| Cc1ccc(C(=O)N2C[C@H]3C[C@@]45CC[C@@H]2[C@@H]3[C@@]42CCN(CC3CC3)[C@@H]5Cc3ccc(O)cc32)c(=O)[nH]1 [Example 8, 3-((1S,3aR,5aS,6R,11bR,11cS)-14-(cyclopropylmethyl)-10-hydroxy-2,3,3a,4,5,6,7,11c-octahydro-1H-6,11b-(epiminoethano)-1,5a-methanonaphtho[1,2-e]indole-3-carbonyl)-6-methylpyridin-2(1H)-one] | < 1 | 21 | > 1 | 8.6 | < 3 | 70 |  |  |
| O=C(c1cc[nH]c(=O)c1)N1C[C@H]2C[C@@]34CC[C@@H]1[C@@H]2[C@@]31CCN(CC2CC2)[C@@H]4Cc2ccc(O)cc21 [Example 11, 4-((1S,3aR,5aS,6R,11bR,11cS)-14-(cyclopropylmethyl)-10-hydroxy-2,3,3a,4,5,6,7,11c-octahydro-1H-6,11b-(epiminoethano)-1,5a-methanonaphtho[1,2-e]indole-3-carbonyl)pyridin-2(1H)-one] |  |  | > 1 | 11 | < 3 | 76 | −2.5* % |  |
| O=C(c1ccc[n+]([O-])c1)N1C[C@H]2C[C@@]34CC[C@@H]1[C@@H]2[C@@]31CCN(CC2CC2)[C@@H]4Cc2ccc(O)cc21 [Example 4, 3-((1S,3aR,5aS,6R,11bR,11cS)-14-(cyclopropylmethyl)-10-hydroxy-2,3,3a,4,5,6,7,11c-octahydro-1H-6,11b-(epiminoethano)-1,5a-methanonaphtho[1,2-e]indole-3-carbonyl)pyridine 1-oxide] | > 10 | 27 |  |  | < 3 | 86 |  | μ receptor reaction rate at the maximum concentration (reference value, marked *) (human opioid μ receptor; maximum reaction not reached, maximum concentration 10 μM, DAMGO = 100%): 5.5* % |
| Cn1cccc(C(=O)N2C[C@H]3C[C@@]45CC[C@@H]2[C@@H]3[C@@]42CCN(CC3CC3)[C@@H]5Cc3ccc(O)cc32)c1=O [Example 6, 3-((1S,3aR,5aS,6R,11bR,11cS)-14-(cyclopropylmethyl)-10-hydroxy-2,3,3a,4,5,6,7,11c-octahydro-1H-6,11b-(epiminoethano)-1,5a-methanonaphtho[1,2-e]indole-3-carbonyl)-1-methylpyridin-2(1H)-one] |  |  | > 10 | 7.7 | < 3 | 97 | 3.2* % |  |
| Cc1ccc(C(=O)N2C[C@H]3C[C@@]45CC[C@@H]2[C@@H]3[C@@]42CCN(CC3CC3)[C@@H]5Cc3ccc(O)cc32)c(=O)[nH]1 [Example 32, 3-((1S,3aR,5aS,6R,11bR,11cS)-14-(cyclopropylmethyl)-10-hydroxy-2,3,3a,4,5,6,7,11c-octahydro-1H-6,11b-(epiminoethano)-1,5a-methanonaphtho[1,2-e]indole-3-carbonyl)-6-methylpyridin-2(1H)-one hydrochloride] |  |  |  |  |  |  |  | κ receptor Emax (human opioid κ receptor; [2]): 21%; μ receptor Emax (human opioid μ receptor; [4]): 8.6%; δ receptor Emax (human opioid δ receptor): 70% |
| O=C(c1cc(=O)cc[nH]1)N1C[C@H]2C[C@@]34CC[C@@H]1[C@@H]2[C@@]31CCN(CC2CC2)[C@@H]4Cc2ccc(O)cc21 [Example 14, 2-((1S,3aR,5aS,6R,11bR,11cS)-14-(cyclopropylmethyl)-10-hydroxy-2,3,3a,4,5,6,7,11c-octahydro-1H-6,11b-(epiminoethano)-1,5a-methanonaphtho[1,2-e]indole-3-carbonyl)pyridin-4(1H)-one] |  |  | > 1 | 8.1 | < 3 | 95 | −6.7* % |  |
| CNCCC(Oc1ccc(C(F)(F)F)cc1)c1ccccc1 (centres unmarked) [fluoxetine, reference compound] |  |  |  |  |  |  |  | hyperemotional reactions of the OBX rats compared with the solvent administration group [1]: significantly reduced |
| O=C(c1cc(=O)cco1)N1C[C@H]2C[C@@]34CC[C@@H]1[C@@H]2[C@@]31CCN(CC2CC2)[C@@H]4Cc2ccc(O)cc21 [Example 19, 2-((1S,3aR,5aS,6R,11bR,11cS)-14-(cyclopropylmethyl)-10-hydroxy-2,3,3a,4,5,6,7,11c-octahydro-1H-6,11b-(epiminoethano)-1,5a-methanonaphtho[1,2-e]indole-3-carbonyl)-4H-pyran-4-one] |  |  | > 1 | 19 | < 3 | 91 | 0.6* % |  |
| Cn1cccc(C(=O)N2C[C@H]3C[C@@]45CC[C@@H]2[C@@H]3[C@@]42CCN(CC3CC3)[C@@H]5Cc3ccc(O)cc32)c1=O [Example 31, 3-((1S,3aR,5aS,6R,11bR,11cS)-14-(cyclopropylmethyl)-10-hydroxy-2,3,3a,4,5,6,7,11c-octahydro-1H-6,11b-(epiminoethano)-1,5a-methanonaphtho[1,2-e]indole-3-carbonyl)-1-methylpyridin-2(1H)-one hydrochloride] |  |  |  |  |  |  |  | μ receptor Emax (human opioid μ receptor): 7.7%; EC50 (human opioid μ receptor): > 10 nM; δ receptor Emax (human opioid δ receptor): 97% |
| CCn1cc(C(=O)N2C[C@H]3C[C@@]45CC[C@@H]2[C@@H]3[C@@]42CCN(CC3CC3)[C@@H]5Cc3ccc(O)cc32)ccc1=O [Example 28, 5-((1S,3aR,5aS,6R,11bR,11cS)-14-(cyclopropylmethyl)-10-hydroxy-2,3,3a,4,5,6,7,11c-octahydro-1H-6,11b-(epiminoethano)-1,5a-methanonaphtho[1,2-e]indole-3-carbonyl)-1-ethylpyridin-2(1H)-one] | < 1 | 18 | > 1 | 16 | < 3 | 92 |  |  |
